# In patent US20020026052A1, “3-cyanoquinolines, 3-cyano-1,6-naphthyridines, and 3-cyano-1,7-naphthyridines as protein kinase inhibitors” (American Home Products Corporation, priority 2000, published 2002):
row,Compound,melting point
1,"Cn1ccnc1Sc1ccc(Nc2c(C#N)cnc3cc(-c4ccc(C=O)cn4)ccc23)cc1Cl [Example 170, 4-{3-Chloro-4-[(1-methyl-1H-imidazol-2-yl)sulfanyl]anilino}-7-(5-formyl-2-pyridinyl)-3-quinolinecarbonitrile]",130 °C (dec.)
2,"Cn1ccnc1Sc1ccc(Nc2c(C#N)cnc3cc(-c4ccc(CN5CCN(CCO)CC5)o4)ccc23)cc1Cl [Example 157, 4-{3-Chloro-4-[(1-methyl-1H-irnidazol-2-yl)sulfanyl]anilino}-7-(5-{[4-(2-hydroxyethyl)-1-piperazinyl]methyl}-2-furyl)-3-quinolinecarbonitrile]",206 to 209 °C
3,"COc1cc2c(Nc3ccc(Sc4nccn4C)c(Cl)c3)c(C#N)cnc2cc1-c1csc(CN2CCOCC2)c1 [Example 125, 4-{3-chloro-4-[(1-methylimidazol-2-yl)sulfanyl]anilino}-6-methoxy-7-[5-(4-morpholinylmethyl)-3-thienyl]-3-quinolinecarbonitrile]",238 to 240 °C
4,"N#Cc1cnc2cc(-c3csc(CN4CCOCC4)c3)ccc2c1Nc1ccc(Cc2ccccc2)cc1 [Example 8, 4-(4-Benzylanilino)-7-[5-(4-morpholinylmethyl)-3-thienyl]-3-quinolinecarbonitrile]",228 to 230 °C
5,"COCCOc1ccc(-c2ccc3c(Nc4cc(OC)c(Cl)cc4Cl)c(C#N)cnc3c2)cc1 [Example 130, 4-(2,4-Dichloro-5-methoxyanilino)-7-{4-[(2-methoxy)ethoxy]phenyl}-3-quinolinecarbonitrile]",205 to 207 °C
6,"Cn1ccnc1Sc1ccc(Nc2c(C#N)cnc3cc(-c4ccc(C(=O)N5CCOCC5)cc4)ccc23)cc1Cl [Example 129, 4-({3-Chloro-4-[(i-methyl-IH-imidazol-2-yl)sulfanyl]phenyl}amino)-7-[4-(4-morpholinylcarbonyl)phenyl]-3-quinolinecarbonitrile]",98 to 101 °C
7,"Cn1ccnc1Sc1ccc(Nc2c(C#N)cnc3cc(-c4cccc(CN5CCOCC5)n4)ccc23)cc1Cl [Example 199, 4-{3-Chloro-4-[(1-methyl-1H-imidazol-2-yl)sulfanyl]anilino}-7-[6-(4-morpholinylmethyl)-2-pyridinyl]-3-quinolinecarbonitrile]",232 to 234 °C
8,"Cn1ccnc1Sc1ccc(Nc2c(C#N)cnc3cc(-c4ccc(N5CCC(O)CC5)nc4)ccc23)cc1Cl [Example 214, 4-({3-Chloro-4-[(1-methyl-1H-imidazol-2-yl)sulfanyl]phenyl}amino)-7-[6-(4-hydroxy-1-piperidinyl)-3-pyridinyl]-3-quinolinecarbonitrile]",178 to 180 °C
9,"CCN1CCN(Cc2cccnc2-c2ccc3c(Nc4ccc(Sc5nccn5C)c(Cl)c4)c(C#N)cnc3c2)CC1 [Example 208, 4-({3-Chloro-4-[(1-methyl-1H-imldazol-2-yl)sulfanyl]phenyl}amino)-7-{3-[(4-ethyl-1-piperazinyl)methyl]-2-pyridinyl}-3-quinolinecarbonitrile]",187 to 190 °C
10,"COc1cc(Nc2c(C#N)cnc3ccc(-c4csc(C=O)c4)cc23)c(Cl)cc1Cl [Example 45, 4-(2,4-Dichloro-5-methoxyanilino)-6-(5-formyl-3-thienyl)-3-quinolinecarbonitrile]",233 to 237 °C
11,"Cn1ccnc1Sc1ccc(Nc2c(C#N)cnc3cc(-c4ccc(CN5CCC(O)CC5)nc4)ccc23)cc1Cl [Example 223, 4-({3-Chloro-4-[(1-methyl-1H-imidazol-2-yl)sulfanyl]phenyl}amino)-7-{6-[(4-hydroxy-1-piperidinyl)methyl]-3-pyridinyl}-3-quinolinecarbonitrile]",242 to 244 °C
12,"CCN1CCN(c2ccc(-c3ccc4c(Nc5cc(OC)c(Cl)cc5Cl)c(C#N)cnc4c3)cn2)CC1 [Example 197, 4-(2,4-Dichloro-5-methoxyanilino)-7-[6-(4-ethyl-1-piperazinyl)-3-pyridinyl]-3-quinolinecarbonitrile]",264 to 266 °C
13,"Cn1ccnc1Sc1ccc(Nc2c(C#N)cnc3cc(-c4cc(CN5CCOCC5)ccn4)ccc23)cc1Cl [Example 203, 4-({3-Chloro-4-[(1-methyl-1H-imidazol-2-yl)sulfanyl]phenyl}amino)-7-[4-(4-morpholinylmethyl)-2-pyridinyl]-3-quinolinecarbonitrile]",205 to 207 °C
14,"CCN1CCN(Cc2ccc(-c3ccc4c(Nc5ccc(Sc6nccn6C)c(Cl)c5)c(C#N)cnc4c3)nc2)CC1 [Example 171, 4-{3-Chloro-4-[(1-methyl-1H-imidazol-2-yl)sulfanyl]anilino}-7-{5-[(4-ethyl-1-piperazinyl)methyl]-2-pyridinyl}-3-quinolinecarbonitrile]",125 to 130 °C
15,"CCN1CCN(c2ccc(-c3ccc4c(Nc5ccc(Sc6nccn6C)c(Cl)c5)c(C#N)cnc4c3)cn2)CC1 [Example 195, 4-{3-Chloro-4-[(1-methyl-1H-imidazol-2-yl)sulfanyl]anilino}-7-[6-(4-ethyl-1-piperazinyl)-3-pyridinyl]-3-quinolinecarbonitrile]",254 to 256 °C

# The next lines start with the values.
row,melting point,Compound
1,166 to 168 °C,"Cn1ccnc1Sc1ccc(Nc2c(C#N)cnc3cc(-c4ccc(CN5CCC(C(=O)O)CC5)cn4)ccc23)cc1Cl [Example 175, 1-{[6-(4-{3-chloro-4-[(1-methyl-1H-imidazol-2-yl)sulfanyl]anilino}-3-cyano-7-quinolinyl)-3-pyridinyl]methyl}-4-piperidinecarboxylic acid]"
2,140 to 143 °C,"COc1cc(Nc2c(C#N)cnc3cc(-c4cnc(CN5CCOCC5)n4C)ccc23)c(Cl)cc1Cl [Example 226, 4-(2,4-Dichloro-5-methoxyanilino)-7-[1-methyl-2-(4-morpholinylmethyl)-1H-imidazol-5-yl]-3-quinolinecarbonitrile]"
3,221 to 223 °C,"N#Cc1cnc2cc(-c3csc(CN4CCOCC4)c3)ccc2c1Nc1ccc(Oc2ccccc2)cc1 [Example 7, 7-[5-(4-Morpholinylmethyl)-3-thienyl]-4-(4-phenoxyanilino)-3-quinolinecarbonitrile]"
4,173 to 175 °C,"Cn1ccnc1Sc1ccc(Nc2c(C#N)cnc3cc(-c4cc(CN5CCOCC5)c(CN5CCOCC5)s4)ccc23)cc1Cl [Example 169, 7-[4,5-Bis(4-morpholinylmethyl)-2-thienyl]-4-{3-chloro-4-[(1-methyl-1H-irnidazol-2-yl)sulfanyl]anilino}-3-quinolinecarbonitrile]"
5,186 to 189 °C,"COc1cc(Nc2c(C#N)cnc3cc(-c4cnc(C=O)n4C)ccc23)c(Cl)cc1Cl [Example 96, 4-(2,4-Dichloro-5-methoxyanilino)-7-(2-formyl-1-methyl-1H-imidazol-5-yl)-3-quinolinecarbonitrile]"
6,185 to 187 °C,"N#Cc1cnc2cc(-c3cncc(CN4CCOCC4)c3)ccc2c1Nc1ccc(Oc2ccccc2)cc1 [Example 48, 7-[5-(4-Morpholinylmethyl)-3-pyridinyl]-4-(4-phenoxyanilino)-3-quinolinecarbonitrile]"
7,180 to 182 °C,COc1cc(Nc2c(C#N)cnc3cc(-c4cc(CN5CCOCC5)ccn4)ccc23)c(Cl)cc1Cl
8,150 °C (dec.),"COc1cc(Nc2c(C#N)cnc3cc(-c4ccc(CN5CCC(C(=O)O)CC5)cn4)ccc23)c(Cl)cc1Cl [Example 177, 1-{6-[3-Cyano-4-(2,4-dichloro-5-methoxyphenylarino)-quinolin-7-yl]-pyridin-3-ylmethyl}-piperidine-4-carboxylic acid]"
9,240 to 242 °C,"COc1cc(Nc2c(C#N)cnc3cc(-c4ccc(N5CCN(C)CC5)nc4)ccc23)c(Cl)cc1Cl [Example 198, 4-(2,4-Dichloro-5-methoxyanilino)-7-[6-(4-methyl-1-piperazinyl)-3-pyridinyl]-3-quinolinecarbonitrile]"
10,238 to 241 °C,"Cn1ccnc1Sc1ccc(Nc2c(C#N)cnc3ccc(-c4ccc(CN5CCOCC5)cn4)cc23)cc1Cl [Example 182, 4-({3-Chloro-4-[(1-methyl-1H-imidazol-2-yl)sulfanyl]phenyl}amino)-6-[5-(4-morpholinylmethyl)-2-pyridinyl]-3-quinolinecarbonitrile]"
11,202 to 203 °C,"CN1CCN(Cc2ccc(-c3ccc4c(Nc5ccc(Sc6nccn6C)c(Cl)c5)c(C#N)cnc4c3)cc2)CC1 [Example 135, 4-{3-chloro-4-[(1-methylimidazol-2-yl)sulfanyl]anilino}-7-{4-[(4-methyl-1-piperazinyl)methyl]phenyl}-3-quinolinecarbonitrile]"
12,230 to 232 °C,"Cn1ccnc1Sc1ccc(Nc2c(C#N)cnc3cc(-c4ccc(CN5CCC(O)CC5)cc4)ccc23)cc1Cl [Example 134, 4-{3-Chloro-4-[(1-methyl-LH-imidazol-2-yl)sulfanyl]anilino}-7-{4-[(4-hydroxy-1-piperidinyl)methyl]phenyl}-3-quinolinecarbonitrile]"
13,135 to 137 °C,"COC(=O)C1CCN(Cc2ccc(-c3ccc4c(Nc5ccc(Sc6nccn6C)c(Cl)c5)c(C#N)cnc4c3)nc2)CC1 [Example 107, Methyl 1-{[6-(4-{3-chloro-4-[(1-methyl-1H-imidazol-2-yl)sulfanyl]anilino}-3-cyano-7-quinolinyl)-3-pyridinyl]methyl}-4-piperidinecarboxylate]"
14,145 °C,"COc1cc(Nc2c(C#N)cnc3cc(-c4ccc(/C=C/CN5CCOCC5)s4)ccc23)c(Cl)cc1Cl [Example 21, 4-(2,4-Dichloro-5-methoxyanilino)-7-{5-[(E)-3-(4-morpholinyl)-1-propenyl]-2-thienyl}-3-quinolinecarbonitrile]"
15,220 to 222 °C,Cn1ccnc1Sc1ccc(Nc2c(C#N)cnc3cc(-c4ccc(CN5CCSCC5)cn4)ccc23)cc1Cl [Example 219]
16,> 240 °C (dec.),"Cn1ccnc1Sc1ccc(Nc2c(C#N)cnc3cc(-c4ccc(C=O)cc4)ccc23)cc1Cl [Example 62, 4-{3-chloro-4-[(1-methyl-1H-imidazol-2-yl)sulfanyl]anilino}-7-(4-formylphenyl)-3-quinolinecarbonitrile]"
17,141 to 143 °C,COc1cc(Nc2c(C#N)cnc3cc(-c4cncc(CN5CCOCC5)c4)ccc23)c(Cl)cc1Cl
